Measured values taken from paper PMC11428279, “Exploring Structure–Activity Relationships and Modes of Action of Laterocidine” (ACS Central Science, 2024).
Values after ≈ are worked out from the molar mass of the structure shown. Bridge positions count the residues as written; N and C are the ends. Square brackets hold non-standard residues; d marks the D form. Peptide text beside a SMILES is read from it. * marks the point of attachment. dOrn = NCCC[C@@H](N)C(=O)O; Nonanoyl = CCCCCCCCC(=O)*; Orn = NCCC[C@H](N)C(=O)O

Legend:
female Swiss mice = experiment: Acute toxicity in mice (maximum tolerable dose); assay type: in vivo; conditions: intravenous bolus via lateral tail vein, free base, N = 3
Experimental: (§1) All animal studies were approved by the Monash University Animal Ethics Committee and involved female Swiss mice (22–28 g, 7-week-old) housed in microisolators within a PC2 animal laboratory. Mice were kept under a 12/12 h dark/light cycle at 20–24 °C and 50–70% ambient humidity.
For the acute toxicity studies, peptide 11 and laterocidine solutions were prepared in 0.9% saline and stored at 4 °C before use. All mice were administered an intravenous bolus of one peptide (mg/kg free base) via a lateral tail vein (≤0.1 mL). Following the injection, mice were released back into their respective home cages and individually monitored for 24 h for signs of clinical toxicity. Mice displaying any signs of toxicity were humanely euthanized according to the recommended Euthanasia/Humane Experimental End point Criteria.

P. aeruginosa PAO1 [1] = experiment: MIC; assay type: cell-based; conditions: polymyxin-susceptible reference strain
[2] = test system: human kidney proximal tubular (HK-2) cells; experiment: Viability of human kidney proximal tubular cells; assay type: cell-based; conditions: 24 h of treatment, fluorescence microscopy, mean ± SD, n = 3
From the text: The fluorescence microscopy method used to culture HK-2 cells and the use of fluorescence microscopy to determine the percent cell viability (%) following peptide treatment are the same as published previously.[59],[60]

P. aeruginosa PAO1 [3] = experiment: Static time-kill study; assay type: cell-based; conditions: 8 × MIC, over 24 h
Experimental: (§2) MICs for laterocidine and its various analogues were determined by broth microdilution[49] for the following polymyxin-susceptible ATCC and clinical isolates: P. aeruginosa FADDI-PA022, FADDI-PA001, FADDI-PA025, FADDI-PA070, FADDI-PA060; A. baumannii FADDI-AB134, FADDI-AB034, FADDI-AB030, FADDI-AB174, FADDI-AB241; K. pneumoniae FADDI-KP032, FADDI-KP022, BM1, FADDI-KP065, FADDI-KP064, FADDI-KP003; and E. cloacae FADDI-EC001, FADDI-EC003, and FADDI-EC006. Experiments were performed with cation-adjusted Mueller–Hinton broth (CAMHB) in 96-well polystyrene microtiter plates. Wells were inoculated with 100 μL of bacterial suspension prepared in CAMHB (containing ∼10^6 CFU/mL) and 100 μL of CAMHB containing increasing concentrations of polymyxins (0–32 μg/mL). MIC measurements were performed in duplicate, with the MIC being the lowest concentration at which visible growth was inhibited following 18–20 h of incubation at 37 °C. Bacterial killing kinetics was investigated over 24 h as described previously.[50]

P. aeruginosa PAO1R [4] = experiment: Static time-kill study; assay type: cell-based; conditions: 8 × MIC, over 24 h
Experimental: as §2

P. aeruginosa PAO1R [5] = experiment: MIC; assay type: cell-based; conditions: polymyxin-resistant paired strain of PAO1
[6] = test system: Gram-negative strains of P. aeruginosa, A. baumannii, K. pneumoniae, and E. cloacae; assay type: cell-based
Experimental: as §2

E. cloacae = assay type: cell-based; conditions: compared with native laterocidine
Experimental: as §2

[7] = test system: P. aeruginosa FADDI-PA070; experiment: Neutropenic murine bloodstream infection model; assay type: in vivo, P. aeruginosa in mice; conditions: for Bacteria load in blood: 8 mg/kg iv (free base) 2 h postinoculation, neutropenic mice, 4 h time point, N = 3, mean
Experimental: as §1
The neutropenic bloodstream infection model was undertaken as previously described.[39] Mice were rendered neutropenic through intraperitoneal injections of cyclophosphamide administered 4 days (150 mg/kg) and 1 day (100 mg/kg) prior to inoculation. Bloodstream infection was established by administering a 50 μL bolus of early log-phase bacterial suspension (4 × 10^8 CFU/mL). Laterocidine, peptide 11, and polymyxin B solutions were prepared in sterile saline at a concentration of 1 mg/mL (free base). Two hours postinoculation, mice (n = 3) were injected intravenously with either polymyxin B at 4 mg/kg (free base), peptide 11 at 8 mg/kg (free base), laterocidine at 8 mg/kg (free base), or saline (control mice). Blood was collected immediately after (0 h) and 4 h after drug administration, serially diluted with sterile saline, and appropriately diluted samples manually plated on nutrient agar prior to overnight incubation at 37 °C. Colonies were counted manually and the bacterial load (log10 CFU/mL) in the blood of each mouse calculated. In vivo efficacy was calculated as the difference between the log10 CFU/mL blood values of treated and control mice 4 h postdosing (Δlog10 CFU/mL blood = log10 [treated] CFU/mL blood–log10[control] CFU/mL blood).[54]

A. baumannii 5075D = assay type: cell-based; conditions: lacks lipid A in the outer membrane
A. baumannii 5075R = assay type: cell-based; conditions: lipid A modified with phosphoethanolamine
[8] = test system: A. baumannii 5075 (wild type); experiment: MIC; assay type: cell-based
A. baumannii = assay type: cell-based
Experimental: as §2

K. pneumoniae = assay type: cell-based
Experimental: as §2

P. aeruginosa = assay type: cell-based; conditions: compared with native laterocidine
Experimental: as §2

[9] = compared with native laterocidine

## CC[C@H](C)CCCCC(=O)N[C@@H](CCN)C(=O)N[C@H](C(=O)N[C@@H](CCN)C(=O)N[C@H]1CCNC(=O)[C@H]([C@@H](C)O)NC(=O)[C@H](CCN)NC(=O)[C@H](CCN)NC(=O)[C@H](CC(C)C)NC(=O)[C@@H](Cc2ccccc2)NC(=O)[C@H](CCN)NC1=O)[C@@H](C)O [polymyxin B, reference compound] (HELM PEPTIDE1{[CC[C@H](C)CCCCC(=O)[*:2]].[Dab].T.[Dab].[Dab].[Dab].[dF].L.[Dab].[Dab].T}$PEPTIDE1,PEPTIDE1,5:R3-11:R2$$$V2.0; N-terminus assumed; bridges inferred)
Female Swiss mice
  maximum tolerable dose (MTD), Iv (Bolus): 5 mg/kg
P. aeruginosa PAO1 [1]
  MIC, P. aeruginosa PAO1: 0.5 µg/mL (≈ 0.415 µM)
[2]; 0.01 mM
  cell viability of HK-2 cells: 74.8 ± 2.6%
[2]; 0.1 mM
  cell viability of HK-2 cells: 6.4 ± 3.6%
P. aeruginosa PAO1 [3]
  time-kill outcome against P. aeruginosa PAO1: no viable bacteria were detected at 1 h, rapid and significant regrowth subsequently occurred
P. aeruginosa PAO1R [4]
  time-kill outcome against P. aeruginosa PAO1R: no viable bacteria detected at 8 × MIC on multiple occasions, including at 24 h
P. aeruginosa PAO1R [5]
  MIC, P. aeruginosa PAO1R: 16 µg/mL (≈ 13.3 µM)

## CCCCCCCCC(=O)N[C@H](CO)C(=O)N[C@H](Cc1ccc(O)cc1)C(=O)N[C@H](Cc1c[nH]c2ccccc12)C(=O)N[C@H](CCCN)C(=O)N[C@@H](CCCN)C(=O)NCC(=O)N[C@H](CCCN)C(=O)N[C@@H](Cc1c[nH]c2ccccc12)C(=O)N[C@@H]1C(=O)N[C@@H]([C@@H](C)CC)C(=O)N[C@@H](CC(N)=O)C(=O)NCC(=O)N[C@@H](C)C(=O)O[C@@H]1C [Peptide 24] (Nonanoyl-[dS][dY][dW][dOrn][Orn]G[dOrn]WTINGA; ester 9-C)
[6]; [9]
  fold increase in MIC (loss of activity) against all strains / all species: no more than 1 fold
E. cloacae
  fold increase in MIC for two E. cloacae strains: 2 fold

## CCCCCCCCC(=O)N[C@H](CO)C(=O)N[C@H](Cc1ccc(O)cc1)C(=O)N[C@H](Cc1c[nH]c2ccccc12)C(=O)N[C@H](CCCN)C(=O)N[C@@H](CCCN)C(=O)NCC(=O)N[C@H](CCCN)C(=O)N[C@@H](Cc1c[nH]c2ccccc12)C(=O)N[C@@H]1C(=O)N[C@@H]([C@@H](C)CC)C(=O)N[C@@H](CC(N)=O)C(=O)NCC(=O)NCC(=O)O[C@@H]1C [Peptide 11] (Nonanoyl-[dS][dY][dW][dOrn][Orn]G[dOrn]WTINGG; ester 9-C)
Female Swiss mice
  maximum tolerable dose (MTD), Iv (Bolus): 13.2 mg/kg
P. aeruginosa PAO1 [1]
  MIC, P. aeruginosa PAO1: 2 µg/mL (≈ 1.25 µM)
[7]
  Bacteria load in blood: 2.70%
[7]; listed as peptide 11
  Bacteria load in blood: 2.7%
[7]; murine bloodstream infection model, 8 mg/kg
  fold increase in antimicrobial activity compared to native laterocidine (peptide 1): 8 fold
A. baumannii 5075D
  MIC, A. baumannii 5075 D: 32 µg/mL (≈ 19.9 µM)
P. aeruginosa PAO1 [3]
  time-kill outcome against P. aeruginosa PAO1: substantial bacterial regrowth nevertheless occurred at all concentrations
P. aeruginosa PAO1R [4]
  time-kill outcome against P. aeruginosa PAO1R: completely inhibiting the growth
P. aeruginosa PAO1R [4]; listed as peptide 11
  time-kill outcome against P. aeruginosa PAO1R: no viable bacteria were detected at 24 h
P. aeruginosa PAO1R [5]
  MIC, P. aeruginosa PAO1R: 2 µg/mL (≈ 1.25 µM)
[6]; all tested Gram-negative strains
  MICs against all tested strains (range): identical MICs to laterocidine
A. baumannii 5075R
  MIC, A. baumannii 5075 R: 32 µg/mL (≈ 19.9 µM)
[8]
  MIC, A. baumannii 5075 S: 8 µg/mL (≈ 4.98 µM)

## CCCCCCCCC(=O)N[C@H](C)C(=O)N[C@H](Cc1ccc(O)cc1)C(=O)N[C@H](Cc1c[nH]c2ccccc12)C(=O)N[C@H](CCCN)C(=O)N[C@@H](CCCN)C(=O)NCC(=O)N[C@H](CCCN)C(=O)N[C@@H](Cc1c[nH]c2ccccc12)C(=O)N[C@@H]1C(=O)N[C@@H]([C@@H](C)CC)C(=O)N[C@@H](CC(N)=O)C(=O)NCC(=O)NCC(=O)O[C@@H]1C [Peptide 35] (Nonanoyl-[dA][dY][dW][dOrn][Orn]G[dOrn]WTINGG; ester 9-C)
A. baumannii
  MICs against A. baumannii (range over strains): ≥ 32 µg/mL
K. pneumoniae
  MICs against K. pneumoniae (range over strains): 2 to 32 µg/mL

## CCCCCCCCC(=O)N[C@H](CO)C(=O)N[C@H](Cc1ccc(O)cc1)C(=O)N[C@H](Cc1c[nH]c2ccccc12)C(=O)N[C@H](CCCN)C(=O)N[C@@H](CCCN)C(=O)NCC(=O)N[C@H](CCCN)C(=O)N[C@@H](Cc1c[nH]c2ccccc12)C(=O)N[C@H]1COC(=O)CNC(=O)CNC(=O)[C@H](CC(N)=O)NC(=O)[C@H]([C@@H](C)CC)NC1=O [Peptide 15] (Nonanoyl-[dS][dY][dW][dOrn][Orn]G[dOrn]WSINGG; ester 9-C)
P. aeruginosa
  fold less activity against the two MDR strains of P. aeruginosa: 8–16 fold
A. baumannii
  MICs against A. baumannii (range over strains): 8 to 32 µg/mL
A. baumannii; [9]
  fold increase in MIC (loss of activity) against A. baumannii: 2–8 fold
